Experimental data as given in the NIST ThermoML archive (doi:10.1016/j.fluid.2018.10.024).

Columns and labels:
[1] = refractive index (Na D-line) (dimensionless); xn = mol fraction of the nth substance listed; conditions: 101 kPa, Liquid, Standard Abbe refractometry
[2] = xn = mol fraction of the nth substance listed; conditions: 101 kPa, Liquid; for viscosity: Capillary tube (Ostwald / Ubbelohde) method; for mass density: Vibrating tube method

ClC(Cl)Cl [trichloromethane] + CO
Conditions | mass density, [2] [kg/m3] | refractive index, [1] | viscosity, [2] [mPa·s]
298.15 K, x2 = 0 | 1478.75 | 1.4422 | 0.5916
298.15 K, x2 = 0.0999 | 1443.84 | 1.4379 | 0.6213
298.15 K, x2 = 0.2012 | 1403.84 | 1.4312 | 0.6437
298.15 K, x2 = 0.3015 | 1358.87 | 1.4217 | 0.6585
298.15 K, x2 = 0.3991 | 1309.46 | 1.4115 | 0.6642
298.15 K, x2 = 0.502 | 1250.29 | 1.4018 | 0.6635
298.15 K, x2 = 0.5998 | 1186.04 | 1.3903 | 0.6552
298.15 K, x2 = 0.7012 | 1108.93 | 1.3789 | 0.6385
298.15 K, x2 = 0.7998 | 1020.91 | 1.3649 | 0.6182
298.15 K, x2 = 0.9001 | 914.54 | 1.3485 | 0.5812
303.15 K, x2 = 0 | 1469.16 | 1.4397 | 0.558
303.15 K, x2 = 0.0999 | 1434 | 1.4327 | 0.5797
303.15 K, x2 = 0.2012 | 1394.48 | 1.4257 | 0.5937
303.15 K, x2 = 0.3015 | 1350.17 | 1.4171 | 0.6053
303.15 K, x2 = 0.3991 | 1301.28 | 1.4084 | 0.6038
303.15 K, x2 = 0.502 | 1242.63 | 1.3979 | 0.6028
303.15 K, x2 = 0.5998 | 1178.79 | 1.3881 | 0.5919
303.15 K, x2 = 0.7012 | 1102.19 | 1.377 | 0.5796
303.15 K, x2 = 0.7998 | 1014.72 | 1.3633 | 0.5571
303.15 K, x2 = 0.9001 | 909 | 1.3467 | 0.533
308.15 K, x2 = 0 | 1460.01 | 1.4356 | 0.5333
308.15 K, x2 = 0.0999 | 1424.97 | 1.4289 | 0.5525
308.15 K, x2 = 0.2012 | 1385.67 | 1.4212 | 0.5656
308.15 K, x2 = 0.3015 | 1341.86 | 1.4116 | 0.5743
308.15 K, x2 = 0.3991 | 1293.54 | 1.4031 | 0.5766
308.15 K, x2 = 0.502 | 1235.37 | 1.3953 | 0.5716
308.15 K, x2 = 0.5998 | 1171.85 | 1.3856 | 0.5627
308.15 K, x2 = 0.7012 | 1095.59 | 1.3729 | 0.5487
308.15 K, x2 = 0.7998 | 1008.7 | – | 0.5267
308.15 K, x2 = 0.9001 | 903.73 | 1.3443 | 0.5044
313.15 K, x2 = 0 | 1450.39 | 1.4338 | 0.5072
313.15 K, x2 = 0.0999 | 1415.61 | 1.427 | 0.5241
313.15 K, x2 = 0.2012 | 1376.61 | 1.4211 | 0.5355
313.15 K, x2 = 0.3015 | 1333.14 | 1.4127 | 0.5429
313.15 K, x2 = 0.3991 | 1285.19 | 1.4049 | 0.5434
313.15 K, x2 = 0.502 | 1227.45 | 1.3943 | 0.5403
313.15 K, x2 = 0.5998 | 1164.4 | 1.3839 | 0.5264
313.15 K, x2 = 0.7012 | 1088.7 | 1.3722 | 0.5134
313.15 K, x2 = 0.7998 | 1002.44 | 1.3592 | 0.4924
313.15 K, x2 = 0.9001 | 898.23 | – | 0.4713
318.15 K, x2 = 0 | 1440.03 | 1.4297 | 0.4849
318.15 K, x2 = 0.0999 | 1405.51 | 1.4201 | 0.4991
318.15 K, x2 = 0.2012 | 1366.88 | 1.4174 | 0.5108
318.15 K, x2 = 0.3015 | 1323.78 | 1.4093 | 0.5144
318.15 K, x2 = 0.3991 | 1276.2 | 1.4023 | 0.5142
318.15 K, x2 = 0.502 | 1218.91 | 1.3927 | 0.5108
318.15 K, x2 = 0.5998 | 1156.37 | 1.3817 | 0.4976
318.15 K, x2 = 0.7012 | 1081.29 | 1.3719 | 0.483
318.15 K, x2 = 0.7998 | 995.73 | 1.3576 | 0.4655
318.15 K, x2 = 0.9001 | 892.36 | 1.3406 | 0.4426

ClC(Cl)Cl [trichloromethane] + CC(C)=O
Conditions | mass density, [2] [kg/m3] | refractive index, [1] | viscosity, [2] [mPa·s]
298.15 K, x2 = 0 | 1478.75 | 1.4422 | 0.5916
298.15 K, x2 = 0.0997 | 1419.64 | 1.4342 | 0.589
298.15 K, x2 = 0.1996 | 1357.58 | 1.4262 | 0.5814
298.15 K, x2 = 0.2993 | 1293.35 | 1.4192 | 0.5684
298.15 K, x2 = 0.3999 | 1226.35 | 1.4112 | 0.5412
298.15 K, x2 = 0.4979 | 1159.27 | 1.4029 | 0.5126
298.15 K, x2 = 0.599 | 1088.31 | 1.3941 | 0.4741
298.15 K, x2 = 0.6993 | 1016.22 | 1.3851 | 0.435
298.15 K, x2 = 0.8008 | 941.27 | 1.377 | 0.3975
298.15 K, x2 = 0.9006 | 864.78 | 1.3676 | 0.3443
303.15 K, x2 = 0 | 1469.16 | 1.4397 | 0.558
303.15 K, x2 = 0.0997 | 1409.35 | 1.4309 | 0.5571
303.15 K, x2 = 0.1996 | 1347.6 | 1.4252 | 0.5571
303.15 K, x2 = 0.2993 | 1284.12 | 1.418 | 0.5373
303.15 K, x2 = 0.3999 | 1217.87 | 1.4105 | 0.5156
303.15 K, x2 = 0.4979 | 1151.19 | 1.4019 | 0.4913
303.15 K, x2 = 0.599 | 1080.44 | 1.3924 | 0.4551
303.15 K, x2 = 0.6993 | 1008.68 | 1.3841 | 0.4188
303.15 K, x2 = 0.8008 | 934.43 | 1.3744 | 0.3802
303.15 K, x2 = 0.9006 | 858.83 | 1.3656 | 0.338
308.15 K, x2 = 0 | 1460.01 | 1.4356 | 0.5333
308.15 K, x2 = 0.0997 | 1402.33 | 1.4281 | 0.5329
308.15 K, x2 = 0.1996 | 1341.01 | 1.4215 | 0.5303
308.15 K, x2 = 0.2993 | 1276.96 | 1.4141 | 0.5185
308.15 K, x2 = 0.3999 | 1210.11 | 1.4055 | 0.4968
308.15 K, x2 = 0.4979 | 1143.34 | 1.3968 | 0.4693
308.15 K, x2 = 0.599 | 1073.05 | 1.3875 | 0.4396
308.15 K, x2 = 0.6993 | 1001.9 | 1.3791 | 0.4028
308.15 K, x2 = 0.8008 | 927.99 | 1.3702 | 0.3593
308.15 K, x2 = 0.9006 | 852.47 | 1.3601 | 0.3254
313.15 K, x2 = 0 | 1450.39 | 1.4338 | 0.5072
313.15 K, x2 = 0.0997 | 1393.77 | 1.4276 | 0.5067
313.15 K, x2 = 0.1996 | 1332.05 | 1.4202 | 0.4994
313.15 K, x2 = 0.2993 | 1268.04 | 1.4128 | 0.4876
313.15 K, x2 = 0.3999 | 1201.58 | 1.4048 | 0.468
313.15 K, x2 = 0.4979 | 1135.08 | 1.3965 | 0.4429
313.15 K, x2 = 0.599 | 1064.85 | 1.3873 | 0.4149
313.15 K, x2 = 0.6993 | 993.86 | 1.3787 | 0.383
313.15 K, x2 = 0.8008 | 920.68 | 1.3682 | 0.3453
313.15 K, x2 = 0.9006 | 846.27 | 1.3599 | 0.3056
318.15 K, x2 = 0 | 1440.03 | 1.4297 | 0.4849
318.15 K, x2 = 0.0997 | 1383.86 | 1.4244 | 0.4834
318.15 K, x2 = 0.1996 | 1322.43 | 1.4175 | 0.4798
318.15 K, x2 = 0.2993 | 1258.8 | 1.4094 | 0.4684
318.15 K, x2 = 0.3999 | 1192.83 | 1.4008 | 0.4483
318.15 K, x2 = 0.4979 | 1126.82 | 1.3929 | 0.4207
318.15 K, x2 = 0.599 | 1057.03 | 1.3839 | 0.389
318.15 K, x2 = 0.6993 | 986.42 | 1.3754 | 0.3583
318.15 K, x2 = 0.8008 | 913.61 | 1.365 | 0.3261
318.15 K, x2 = 0.9006 | 839.75 | 1.3548 | 0.2862
